Assay [1] addresses T1, Alpha-2C adrenergic receptor (Homo sapiens, UniProt P18825).
T1 sequence (P18825 whole entry): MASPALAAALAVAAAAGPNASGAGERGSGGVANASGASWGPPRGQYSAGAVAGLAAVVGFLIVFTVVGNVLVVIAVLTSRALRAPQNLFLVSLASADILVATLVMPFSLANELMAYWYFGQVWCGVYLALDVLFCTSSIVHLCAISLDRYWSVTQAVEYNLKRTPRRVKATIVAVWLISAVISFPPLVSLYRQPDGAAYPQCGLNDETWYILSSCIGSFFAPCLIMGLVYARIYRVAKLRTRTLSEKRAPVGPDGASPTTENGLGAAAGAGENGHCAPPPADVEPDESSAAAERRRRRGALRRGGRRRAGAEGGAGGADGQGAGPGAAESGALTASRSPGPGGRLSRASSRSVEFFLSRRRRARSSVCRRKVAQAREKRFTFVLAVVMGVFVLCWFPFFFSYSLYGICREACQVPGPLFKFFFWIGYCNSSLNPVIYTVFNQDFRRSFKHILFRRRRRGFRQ
Briefly: DRUGMATRIX: Adrenergic Alpha-2C radioligand binding (ligand: [3H] MK-912). Type of assay: cell membranes, Sf9, Membrane.

Assay [2] is described as follows: DRUGMATRIX: ATPase, Na+/K+ enzyme inhibition (substrate: ATP). Particulars: Not Active = under 50% inhibition at 10 µM. Type of assay: tissue-based, Sus scrofa, Heart.
In a further assay the target is T2, Substance-K receptor (Homo sapiens, UniProt P21452). Also: in other assays of this panel Not Active means under 50% inhibition at 10 µM.
T2 sequence (P21452 whole entry): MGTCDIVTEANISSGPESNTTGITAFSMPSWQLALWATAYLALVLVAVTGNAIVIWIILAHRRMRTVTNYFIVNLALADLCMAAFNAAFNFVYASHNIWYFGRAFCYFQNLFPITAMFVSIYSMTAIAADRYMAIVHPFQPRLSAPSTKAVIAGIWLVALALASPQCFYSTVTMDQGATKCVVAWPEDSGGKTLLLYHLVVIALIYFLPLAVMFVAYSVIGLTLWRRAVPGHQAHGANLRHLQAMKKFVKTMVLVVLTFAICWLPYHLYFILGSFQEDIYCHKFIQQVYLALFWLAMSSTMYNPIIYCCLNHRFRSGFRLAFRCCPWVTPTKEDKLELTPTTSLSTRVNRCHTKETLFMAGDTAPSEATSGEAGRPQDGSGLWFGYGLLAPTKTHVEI
Type of assay: cell membranes, CHO, Membrane.

For assay [3], the target named is Vascular endothelial growth factor receptor 1 (Homo sapiens, UniProt P17948). Type of assay: cell-based. The following applies: huvec. Also: in other assays of this panel Not Active means under 50% inhibition at 10 µM.
Vascular endothelial growth factor receptor 1, sequence (P17948 whole entry): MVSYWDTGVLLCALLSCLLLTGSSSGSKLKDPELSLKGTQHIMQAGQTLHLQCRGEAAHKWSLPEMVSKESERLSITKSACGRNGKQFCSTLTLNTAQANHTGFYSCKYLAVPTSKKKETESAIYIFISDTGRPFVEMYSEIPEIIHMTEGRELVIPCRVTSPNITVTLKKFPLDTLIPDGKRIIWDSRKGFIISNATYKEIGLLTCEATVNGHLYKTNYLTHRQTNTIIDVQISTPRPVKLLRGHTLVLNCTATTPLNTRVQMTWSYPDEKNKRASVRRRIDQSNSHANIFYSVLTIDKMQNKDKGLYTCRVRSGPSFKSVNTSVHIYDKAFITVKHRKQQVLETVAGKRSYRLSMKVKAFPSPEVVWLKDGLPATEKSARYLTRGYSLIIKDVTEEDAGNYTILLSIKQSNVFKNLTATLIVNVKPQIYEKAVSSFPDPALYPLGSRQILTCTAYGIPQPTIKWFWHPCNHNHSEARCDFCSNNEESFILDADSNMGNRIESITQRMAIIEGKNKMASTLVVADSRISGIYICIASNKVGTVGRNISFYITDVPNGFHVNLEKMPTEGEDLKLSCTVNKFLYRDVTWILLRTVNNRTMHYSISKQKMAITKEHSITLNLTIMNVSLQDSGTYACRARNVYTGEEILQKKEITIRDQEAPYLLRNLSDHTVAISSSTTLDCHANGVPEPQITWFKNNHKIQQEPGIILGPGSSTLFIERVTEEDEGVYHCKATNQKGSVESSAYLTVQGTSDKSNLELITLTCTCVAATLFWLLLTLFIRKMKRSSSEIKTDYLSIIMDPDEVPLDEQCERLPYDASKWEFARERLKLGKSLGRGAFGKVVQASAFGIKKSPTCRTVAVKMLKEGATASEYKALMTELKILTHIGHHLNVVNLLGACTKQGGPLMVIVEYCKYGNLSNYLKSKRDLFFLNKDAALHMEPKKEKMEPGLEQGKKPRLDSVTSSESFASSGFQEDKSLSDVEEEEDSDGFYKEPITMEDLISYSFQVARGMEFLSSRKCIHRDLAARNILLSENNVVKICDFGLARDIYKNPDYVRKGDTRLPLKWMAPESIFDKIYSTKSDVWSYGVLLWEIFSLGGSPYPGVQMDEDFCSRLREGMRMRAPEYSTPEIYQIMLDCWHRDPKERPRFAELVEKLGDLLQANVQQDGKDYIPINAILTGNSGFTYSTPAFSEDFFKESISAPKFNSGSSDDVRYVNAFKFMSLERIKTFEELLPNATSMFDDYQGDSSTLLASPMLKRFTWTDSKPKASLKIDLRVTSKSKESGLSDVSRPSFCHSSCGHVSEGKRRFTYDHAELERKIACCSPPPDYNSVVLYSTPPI
Assay [4] has as its target T3, Muscarinic acetylcholine receptor M4 (Homo sapiens, UniProt P08173). Also: in other assays of this panel Not Active means under 50% inhibition at 10 µM.
T3 sequence (P08173 whole entry): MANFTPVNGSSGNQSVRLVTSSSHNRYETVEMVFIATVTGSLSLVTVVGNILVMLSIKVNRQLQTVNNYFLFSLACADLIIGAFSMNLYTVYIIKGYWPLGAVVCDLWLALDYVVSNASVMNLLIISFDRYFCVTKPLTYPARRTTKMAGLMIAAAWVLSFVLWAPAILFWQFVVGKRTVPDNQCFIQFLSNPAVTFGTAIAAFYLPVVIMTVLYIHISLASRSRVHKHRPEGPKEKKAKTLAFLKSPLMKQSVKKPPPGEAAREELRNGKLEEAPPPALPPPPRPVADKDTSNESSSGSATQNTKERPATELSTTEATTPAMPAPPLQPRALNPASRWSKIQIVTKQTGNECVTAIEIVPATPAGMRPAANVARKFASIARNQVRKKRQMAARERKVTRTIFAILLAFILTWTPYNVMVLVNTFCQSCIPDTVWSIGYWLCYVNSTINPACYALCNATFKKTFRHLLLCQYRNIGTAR
Type of assay: cell membranes, CHO-K1, Membrane. Particulars: cho-k1.

The nature of assay [5]: DRUGMATRIX: Phorbol Ester radioligand binding (ligand: [3H] PDBu). Type of assay: cell membranes, Mus musculus, ICR, Brain, Membrane. Particulars: Not Active = under 50% inhibition at 10 µM.
Assay [6] is described as follows: DRUGMATRIX: Purinergic P2X radioligand binding (ligand: [3H] alpha, beta-Methylene-ATP). Particulars: Not Active = under 50% inhibition at 10 µM. Type of assay: cell membranes, Oryctolagus cuniculus, New Zealand albino, Urinary bladder, Membrane.

As usually defined, the IC50 is the point on the concentration scale where inhibition reaches its midpoint. The Ki is a dissociation constant, usually derived from enzyme kinetics or from competition with a known ligand. With `CCN(CCO)CCCC(C)Nc1ccnc2cc(Cl)ccc12` (stereo unspecified) [HYDROXYCHLOROQUINE], the IC50 result (in assay [1] (sf9); in assay [2]; against Substance-K receptor (cho); in assay [3]; in assay [4]; in assay [5]) was “Not Active” each time. Further, in assay [6], the IC50 entry is given as “Not Active”. In addition, the Ki entry in assay [2], in assay [5] and in assay [6] was “Not Active” in each case.
As for `O=C1c2ccccc2C(=O)C1c1ccccc1` [PHENINDIONE], the IC50 result (in assay [1] (sf9); in assay [2]; against Substance-K receptor (cho); in assay [3]; in assay [4]; in assay [5]) was “Not Active” each time. Moreover, the IC50 entry in assay [6] is given as “Not Active”. The Ki result in assay [2], in assay [5] and in assay [6] was “Not Active” in each case.
For the compound `NC(N)=Nc1nc(CSCCC(N)=NS(N)(=O)=O)cs1` [FAMOTIDINE], the IC50 entry (in assay [1] (sf9); in assay [2]; against Substance-K receptor (cho); in assay [3]; in assay [4]; in assay [5]) was “Not Active” throughout. The IC50 result in assay [6] is given as “Not Active”. Further, the Ki entry in assay [2], in assay [5] and in assay [6] was “Not Active” each time.
In the case of `Cc1ccnc2c1NC(=O)c1cccnc1N2C1CC1` [NEVIRAPINE], the IC50 result (in assay [1] (sf9); in assay [2]; on Substance-K receptor (cho); in assay [3]; in assay [4]; in assay [5]) was “Not Active” each time. The IC50 result in assay [6] was “Not Active”. Also, the Ki entry in assay [2], in assay [5] and in assay [6] was “Not Active” throughout.
Regarding `CO[C@H]1O[C@@H]2O[C@@]3(C)CC[C@H]4[C@H](C)CC[C@@H]([C@H]1C)[C@@]24OO3`, the IC50 result (in assay [1] (sf9); in assay [2]; on Substance-K receptor (cho); in assay [3]; in assay [4]; in assay [5]) was “Not Active” in each case. For the same compound, the IC50 entry in assay [6] was “Not Active”. In addition, the Ki result in assay [2], in assay [5] and in assay [6] was “Not Active” in each case.
With `CN(CCOc1ccc(C[C@H](Nc2ccccc2C(=O)c2ccccc2)C(=O)O)cc1)c1ccccn1`, the IC50 entry in assay [1] (sf9) was “Not Active”; in assay [2] it was “Not Active”; on Substance-K receptor (read-out: IC50), 14.5 µM; in assay [3], “Not Active”; in assay [4] it was “Not Active”; in assay [5], “Not Active”. In addition, the IC50 entry in assay [6] was “Not Active”. The Ki entry in assay [2] is “Not Active”; at Substance-K receptor (read-out: Ki), 4.84 µM; in assay [5] it was “Not Active”; in assay [6], “Not Active”.
Regarding `c1ccc2sc(SSc3nc4ccccc4s3)nc2c1` [BENZOTHIAZYL DISULFIDE], the IC50 in assay [1] (read-out: IC50) was 1.66 µM; in assay [2] it was “Not Active”; against Substance-K receptor (cho), “Not Active”; in assay [3] it was “Not Active”; in assay [4], “Not Active”; in assay [5], “Not Active”. The IC50 entry in assay [6] is “Not Active”. The Ki in assay [1] (read-out: Ki) is 0.241 µM; in assay [2], “Not Active”; in assay [5] it was “Not Active”; in assay [6], “Not Active”.
Regarding `NS(=O)(=O)c1cc(C(=O)O)c(NCc2ccco2)cc1Cl` [FUROSEMIDE], the IC50 result (in assay [1] (sf9); in assay [2]; against Substance-K receptor (cho); in assay [3]; in assay [4]; in assay [5]) was “Not Active” each time. The IC50 result in assay [6] is reported as “Not Active”. The Ki entry in assay [2], in assay [5] and in assay [6] was “Not Active” throughout.
In the case of `COc1ccc(C[C@H](N)C(=O)N[C@H]2[C@@H](O)[C@H](n3cnc4c(N(C)C)ncnc43)O[C@@H]2CO)cc1` [PUROMYCIN], the IC50 entry (in assay [1] (sf9); in assay [2]; against Substance-K receptor (cho); in assay [3]; in assay [4]; in assay [5]) was “Not Active” throughout. In assay [6], the IC50 entry is listed as “Not Active”. Further, the Ki entry in assay [2], in assay [5] and in assay [6] was “Not Active” each time.
In the case of `O=c1[nH]c2ccccc2c2ccccc12`, the IC50 result (in assay [1] (sf9); in assay [2]; against Substance-K receptor (cho); in assay [3]; in assay [4]; in assay [5]) was “Not Active” each time. For the same compound, in assay [6], the IC50 result was “Not Active”. Besides, the Ki result in assay [2], in assay [5] and in assay [6] was “Not Active” each time.
Take COPPER(II) OXIDE: the IC50 entry (in assay [1] (sf9); in assay [2]; at Substance-K receptor (cho); in assay [3]; in assay [4]; in assay [5]) was “Not Active” each time. Moreover, in assay [6], the IC50 result is reported as “Not Active”. Besides, the Ki result (in assay [1] (sf9); in assay [2]; at Substance-K receptor (cho); in assay [3]; in assay [4]; in assay [5]) was “Not Active” throughout. The Ki result in assay [6] was “Not Active”.
Regarding `CC12CCC(CC1)C(C)(C)O2` [EUCALYPTOL], the IC50 entry (in assay [1] (sf9); in assay [2]; against Substance-K receptor (cho); in assay [3]; in assay [4]; in assay [5]) was “Not Active” in each case. For the same compound, the IC50 entry in assay [6] is “Not Active”. Further, the Ki result in assay [2], in assay [5] and in assay [6] was “Not Active” in each case.

Source of the values: ChEMBL document CHEMBL1909046, “DrugMatrix in vitro pharmacology data”.
